# Patent US8618068B2, “Methods and low dose regimens for treating red blood cell disorders” (priority 2009, dated 2013)
# Read-outs that look alike come from different tables or passages of the source.
# Key:
# [1] = Immunotoxicology weight-of-evidence analysis, repeat dose rat study; type: in vivo, Sprague Dawley rat
# Excerpt: The immunotoxicological potential of DMB has been evaluated by a weight-of-evidence analysis of the data generated in the repeat dose Sprague Dawley rat and Beagle dog studies. In both studies, there were no effects of treatment on WBC levels or lymph node histopathology, which are predictive of potential immunotoxicity.
# [2] = Phase 1 repeat-dose clinical study, pharmacokinetics; type: in vivo, human; details: for AUC(0-t): read-out: AUC0-24
# Experimental: DMB was evaluated in a phase 1, placebo-controlled, randomized, repeat dose clinical study that evaluated tolerability, safety, and pharmacokinetics in healthy volunteers. A total of 41 subjects (31 receiving active drug and 10 receiving placebo) completed 14 consecutive days of study medication at daily dose levels of 5, 10 or 15 mg/kg (10 subjects received placebo). Given the importance of iron in red blood cell production, and the requirement for iron supplementation for induction of HbF with other erythropoietic agents, subjects at all 3 dose levels received oral ferrous gluconate on the study medication days. DMB was administered with food to all but one group (5 mg/kg, cohort 1). Subjects were admitted and observed for 24 hours following initial dosing. Thereafter, the study drug was taken once per day at home, except for the last study day. The subjects were monitored weekly for 6 weeks. Thirty-seven subjects completed the study and 4 subjects dropped out due to conflicts. Safety and PK data are available on these subjects.
# The treatment groups included: Cohort 1: 5 mg/kg fasting, 6 active, 2 placebo; Cohort 2: 5 mg/kg with food, 7 active, 2 placebo (3 drop outs); Cohort 3: 5 mg/kg with food and iron supplements, 6 active, 2 placebo (1 drop out); Cohort 4: 10 mg/kg with food and iron supplements, 6 active, 2 placebo; and Cohort 5: 15 mg/kg with food and iron supplements, 6 active, 2 placebo. Subjects in Cohorts 3, 4, and 5 received a single daily dose of ferrous gluconate (325 mg). The iron supplement was administered to evaluate study medication tolerability when taken with iron. No subjects discontinued due to AEs or safety concerns. Fewer subjects reported an event in the highest dose cohort following eating a meal ([…]) than were reported in the lower dose cohorts ([…], 5 and 10 mg/kg).
# Pharmacokinetic (PK) analyses of individual subject plasma concentration-time data were conducted for Day 0 (first dose) and Day 13 (at steady-state) in the multi-dose study. […] Analysis of PK data has shown that plasma drug levels >20 ug/mL persist for greater than 10 hours at the 10 and 15 mg/kg dose levels.
smiles,measurement,setting,value
"CCC(C)(C)C(=O)[O-].[Na+] [DMB, Sodium 2,2-dimethylbutyrate]",effects on WBC levels or lymph node histopathology,[1],no effects
same,time for which plasma drug levels >20 ug/mL persist,[2]; 10 and 15 mg/kg dose levels,greater than 10 hours
same,time for which targeted plasma drug levels were maintained,[2]; 10 and 15 mg/kg dose levels,more than 10 hours
same,AUC(0-t),"[2]; human, plasma, oral, 5 mg/kg, Day 0, fed, with iron",226 µg·h/mL
same,Cmax,"[2]; human, plasma, oral, 5 mg/kg, Day 0, fed, with iron, read-out: mean plasma Cmax",16300 ng/mL
same,AUC(0-t),"[2]; human, plasma, oral, 5 mg/kg, Day 0, without iron",241 µg·h/mL
same,Cmax,"[2]; human, plasma, oral, 5 mg/kg, Day 0, without iron, read-out: Average Cmax",17700 ng/mL
same,Cmax,"[2]; human, plasma, oral, 5 mg/kg, Day 13, fed, with iron, read-out: Cmax",24800 ng/mL
same,AUC,"[2]; human, plasma, oral, 5 mg/kg, Day 13, with iron",360 µg·h/mL
same,AUC,"[2]; human, plasma, oral, 5 mg/kg, Day 13, without iron",312 µg·h/mL
same,Cmax,"[2]; human, plasma, oral, 5 mg/kg, Day 13, without iron, read-out: Average Cmax",22400 ng/mL
same,AUC(0-t),"[2]; human, plasma, oral, 10 mg/kg, Day 0, fed",441 µg·h/mL
same,Cmax,"[2]; human, plasma, oral, 10 mg/kg, Day 0, fed, read-out: mean plasma Cmax",30600 ng/mL
same,AUC,"[2]; human, plasma, oral, 10 mg/kg, Day 13",538 µg·h/mL
same,Cmax,"[2]; human, plasma, oral, 10 mg/kg, Day 13, read-out: Cmax",35700 ng/mL
same,AUC(0-t),"[2]; human, plasma, oral, 15 mg/kg, Day 0, fed",697 µg·h/mL
same,Cmax,"[2]; human, plasma, oral, 15 mg/kg, Day 0, fed, read-out: mean plasma Cmax",48300 ng/mL
same,AUC,"[2]; human, plasma, oral, 15 mg/kg, Day 13",958 µg·h/mL
same,Cmax,"[2]; human, plasma, oral, 15 mg/kg, Day 13, read-out: Cmax",67600 ng/mL
same,Tmax,"[2]; human, plasma, oral, all dose levels, both days, dosing with food",2.5 to 4.4 h
same,half-life,"[2]; human, plasma, oral, doses of 10 and 15 mg/kg, read-out: mean T1/2 (converted)",660 min
